Laboratory results reported in publication PMC6152638, “Anti-Inflammatory Phenolic Acid Esters from the Roots and Rhizomes of Notopterygium incisium and Their Permeability in the Human Caco-2 Monolayer Cell Model” (Molecules : A Journal of Synthetic Chemistry and Natural …, 2017).
Entries after “also recorded” stand apart in the source; their conditions may differ. Where two headings read alike, the source gives them in different places.

Legend:
[1] = test system: NO production in LPS-stimulated RAW264.7 cells; set-up: method as in PMID 28333094; conditions: cited from earlier work
[2] = test system: NO production in LPS-activated RAW264.7 macrophages; test: NO inhibitory assay in LPS-activated RAW264.7 macrophages (Griess); format: cell-based, murine; conditions: Mus musculus, read-out: IC50 on NO production
Method: Briefly, RAW 264.7 cells were maintained in DMEM containing 10% FBS, in a constant humidity atmosphere of 5% CO2 and 95% air at 37 °C, seeded in 96-well culture plates (Costar® #3599, Cambridge, MA, USA) at a density of 3 × 10^4 cells/well for 12 h, and then stimulated with LPS (1 μg/mL) and treated with various concentrations of assayed compounds for 24 h. After that, the cell culture supernatant (100 μL) was collected to react with Griess reagent (100 μL) for 15 min at room temperature. The nitrite in culture medium was measured as an indicator of NO production. NaNO2 was used to generate a standard curve, and NO production was determined by measuring the optical density at 540 nm in comparison with the standard curve. […] The experiments were performed in parallel three times, and L-NIL was used as a positive control. Cell viability (>95%) was assessed by using an MTT assay. The IC50 values were calculated by the software SPSS 16.0 (SPSS Inc., Chicago, IL, USA).

[3] = Stability of the phenolic acid esters in HPLC method validation (Table S1); format: physicochemical
Method: Quantitative analysis of nine phenolic acid esters was performed on a Dionex Ultimate™ 3000 UHPLC system (Dionex Corp., Sunnyvale, CA, USA), comprised of Ultimate 3000 pump, autosampler, column compartment, and diode array detector. The signals were acquired and processed applying a Chromeleon version 6.80 software (Dionex Corp., Sunnyvale, CA, USA). HPLC separation was performed on a C18 Luna® column (250 mm × 4.60 mm i.d., 5 μm) (Phenomenex, Torrance, CA, USA). […] The detection wavelength was set at 305 nm for 2, 270 nm for 3, 259 nm for 4, 325 nm for 1 and 5–9. Column oven was maintained at 25 °C, and the injected volume was 20 μL. The calibration curves were constructed by plotting peak area (y, mAU × min) versus concentration (x, µM). The linear equations across 1–75 µM were y = 0.0087x − 0.0041 with r^2 of 0.9994 for 1, y = 0.0066x − 0.0013 with r^2 of 0.9999 for 2, y = 0.0667x − 0.0269 with r^2 of 0.9997 for 4, y = 0.0917x + 0.0040 with r^2 of 0.9998 for 5, y = 0.0614x − 0.0038 with r^2 of 0.9999 for 6, y = 0.0623x + 0.0051 with r^2 of 0.9999 for 8, and y = 0.0639x − 0.0464 with r^2 of 0.9978 for 9. […] Quantification was carried out by peak area measurements in comparison with the calibration curves.

RAW264.7 cells = test: MTT cytotoxicity assay in RAW264.7 cells; conditions: viability less than 95% of control considered toxic
Method: The cell viability less than 95% of control was considered toxic.
Cell viability (>95%) was assessed by using an MTT assay.

Caco-2 cell monolayer = test: Transport in the human intestinal Caco-2 cell monolayer model; format: in vitro ADME; conditions: for absorption assignment: assigned from Papp AP→BL against propranolol and atenolol; for amount in the receiving chambers: HPLC quantification after transport
Method: (§1) For confluence and differentiation, cells were seeded at a density of 1 × 10^5 cells/cm^2 into 12-well Transwell plates (insert diameter 12 mm, pore size 3.0 μm, membrane growth area 1.12 cm^2, Costar® #3402) and were allowed to grow for 21 days before the permeation experiment. On Day 21, the monolayers with TEER values >500 Ω·cm^2 were qualified for the transport experiment. The transport study was initiated by the careful removal of the culture medium from AP and BL side of the inserts. Caco-2 monolayers were rinsed twice with pre-warmed HBSS and were incubated by pre-warmed HBSS for 30 min at 37 °C. Stock solutions of test phenolic acid esters were prepared in DMSO and diluted to 50 µM with HBSS. […] The assayed solutions (50 µM) were added to the AP side (0.5 mL, for absorption transport) or BL side (1.5 mL, for efflux transport) of the inserts, while the receiving chamber contained the corresponding volume of HBSS. Incubation was performed at 37 °C for 90 min, with shaking at 50 rpm. Samples were collected from the inserts, then frozen, lyophilized, redissolved in MeOH, and injected into HPLC system for quantitative analysis.
(§2) The Papp values were calculated as the following equation:Papp = (dQ/dt) × (1/A) × (1/C0) (cm/s)(1) where dQ/dt is the rate of the appearance of the test compound on the receiver compartment (μmol/s), C0 is the initial test compound concentration on the donor compartment (μmol/mL), and A is the surface area of Caco-2 monolayer (cm^2).

[4] = as above; format: in vitro ADME; conditions: human; for Papp B→A at 90 min, 50 µM / efflux ratio at 90 min, 50 µM: Caco-2; for Papp B→A at 90 min, 50 µM: basolateral to apical; for efflux ratio at 90 min, 50 µM: ratio of Papp BL→AP to Papp AP→BL
Method: as §1, §2

[5] = RAW264.7, LPS 1 μg/mL, 24 h, n = 3
[6] = Caco-2, apical to basolateral, 50 µM, incubation up to 90 min, n = 4
[7] = Caco-2, values as stated in text
[8] = 50 µM, incubation up to 90 min, n = 4

| IC50 [2, 5] [µM] | Stability ([3]; QC 5 μM) [%] | Stability ([3]; QC 25 μM) [%] | Stability ([3]; QC 50 μM) [%] | Papp A→B at 90 min, 50 µM [4, 6] [×10⁻⁶ cm/s] | Papp A→B at 90 min, 50 µM [4, 7] [×10⁻⁶ cm/s] | Papp B→A at 90 min, 50 µM [4, 8] [×10⁻⁶ cm/s] | efflux ratio at 90 min, 50 µM [4] | amount in the receiving chambers (Caco-2 cell monolayer) | IC50 ([2]; RAW264.7, 24 h) [µM] | SMILES | IC50 [1] [µM] | cytotoxicity (MTT) (RAW264.7 cells; 0.78125–25 μM) | absorption assignment (Caco-2 cell monolayer) | cytotoxicity (MTT) (RAW264.7 cells; 3.125–100 μM) | cytotoxicity (MTT) (RAW264.7 cells; 1.5625–50 μM) | cytotoxicity (MTT) (RAW264.7 cells; 0.25 to 8 μM) |
| --- | --- | --- | --- | --- | --- | --- | --- | --- | --- | --- | --- | --- | --- | --- | --- | --- |
| 2.73 ± 0.58 | 92.26±2.89 | 93.71±1.88 | 101.99±1.32 | 0.66 ± 0.16 | < 1 | 0.7 ± 0.18 | 1.06 |  |  | COc1cc(/C=C/C(=O)OCCc2ccccc2)ccc1O [Compound 9, phenethylferulate] |  |  | poorly absorbed |  | no toxicity |  |
| 67.9 ± 0.91 |  |  |  |  |  |  |  |  |  | COc1cc(/C=C/C(=O)O)ccc1O [Compound 10, ferulic acid, reference compound] |  |  |  |  |  |  |
| > 200 |  |  |  |  |  |  |  |  |  | O=C(O)/C=C/c1ccccc1 [Compound 11, cinnamic acid, reference compound] |  |  |  |  |  |  |
|  |  |  |  |  |  |  |  |  | 9.37 ± 1.57 | CC(=N)NCCCC[C@H](N)C(=O)O [L-NIL, reference compound] |  |  |  |  |  |  |
|  |  |  |  |  | 22.9 |  |  |  |  | CC(C)NCC(O)COc1cccc2ccccc12 (stereo not drawn) [propranolol, reference compound] |  |  |  |  |  |  |

The remaining lines, values behind:

| SMILES | IC50 [2, 5] [µM] | Stability ([3]; QC 5 μM) [%] | Stability ([3]; QC 25 μM) [%] | Stability ([3]; QC 50 μM) [%] | Papp A→B at 90 min, 50 µM [4, 6] [×10⁻⁶ cm/s] | Papp A→B at 90 min, 50 µM [4, 7] [×10⁻⁶ cm/s] | Papp B→A at 90 min, 50 µM [4, 8] [×10⁻⁶ cm/s] | efflux ratio at 90 min, 50 µM [4] | amount in the receiving chambers (Caco-2 cell monolayer) | IC50 ([2]; RAW264.7, 24 h) [µM] | IC50 [1] [µM] | cytotoxicity (MTT) (RAW264.7 cells; 0.78125–25 μM) | absorption assignment (Caco-2 cell monolayer) | cytotoxicity (MTT) (RAW264.7 cells; 3.125–100 μM) | cytotoxicity (MTT) (RAW264.7 cells; 1.5625–50 μM) | cytotoxicity (MTT) (RAW264.7 cells; 0.25 to 8 μM) |
| --- | --- | --- | --- | --- | --- | --- | --- | --- | --- | --- | --- | --- | --- | --- | --- | --- |
| COc1cc(/C=C/C(=O)OCC(O)COC(=O)/C=C/c2ccc(O)c(OC)c2)ccc1O [1,3-O-diferuloylglycerol] |  |  |  |  |  |  |  |  |  |  | 12 ± 1.07 |  |  |  |  |  |
| COc1cc(/C=C/C(=O)OCC(CO)OC(=O)/C=C/c2ccc(O)cc2)ccc1O (stereo not drawn) [1-O-feruloyl-2-O-p-coumaroylglycerol] |  |  |  |  |  |  |  |  |  |  | 9.12 ± 0.72 |  |  |  |  |  |
| CC/C(C)=C/CCOC(=O)/C=C/c1ccc(O)c(OC)c1 [Compound 1, 4-methyl-3-trans-hexenylferulate] | 1.01 ± 0.08 | 93.56±1.02 | 95.65±0.56 | 92.25±1.63 | 0.5 ± 0.12 | < 1 | 0.62 ± 0.12 | 1.24 |  |  |  | no toxicity | poorly absorbed |  |  |  |
| O=C(OCc1ccccc1)c1ccccc1O [Compound 2, benzylsalicylate] | 53.7 ± 4.13 | 98.84±2.09 | 94.57±1.85 | 97.25±2.09 | 18 ± 1.63 | > 10 | 13.4 ± 0.63 |  |  |  |  |  | good absorption; also recorded: well-absorbed |  |  |  |
| CC1(C)C2CCC1(C)C(OC(=O)C=Cc1ccccc1)C2 (stereo not drawn) [Compound 3, bornylcinnamate] | 70.5 ± 25.9 |  |  |  | < 0.05 | < 0.1 | < 0.02 |  | below the lower limit of detection |  |  |  | poorly absorbed; also recorded: hardly permeate | no toxicity |  |  |
| COc1ccc(C(=O)OCCc2ccc(O)cc2)cc1 [Compound 4, p-hydroxyphenethyl anisate] | 11.1 ± 1.43 | 92.28±2.07 | 100.74±2.15 | 95.85±2.01 | 0.36 ± 0.04 | < 1 | 0.05 ± 0.01 | 0.15 |  |  |  |  | poorly absorbed | no toxicity |  |  |
| COc1cc(/C=C/C(=O)OC2CC3CCC2(C)C3(C)C)ccc1O (stereo not drawn) [Compound 5, (−)-bornylferulate] | 4.63 ± 1.73 | 96.29±0.99 | 94.56±0.96 | 95.85±1.01 | 0.08 ± 0.02 | < 0.1 | 0.13 ± 0.02 | 1.69 |  |  |  | no toxicity | poorly absorbed; also recorded: hardly permeate |  |  |  |
| COc1cc(/C=C/C(=O)OC(C)C)ccc1O [Compound 6, isopropylferulate] | 12.6 ± 2.8 | 95.08±1.56 | 102.02±1.96 | 102.05±1.39 | 17.6 ± 2.27 | > 10 | 13.8 ± 2.74 | 0.79 |  |  |  |  | good absorption; also recorded: well-absorbed |  | no toxicity |  |
| CCCCCCCCCCCCCCCCCCCCCCCCCCCCCCOC(=O)/C=C/c1ccc(O)c(OC)c1 [Compound 7, trans-triacontyl-4-hydroxy-3-methoxycinnamate] |  |  |  |  | < 0.02 | < 0.1 | < 0.01 |  | below the lower limit of detection |  |  |  | poorly absorbed; also recorded: hardly permeate |  |  | had cytotoxicity |
| COc1ccc(CCOC(=O)/C=C/c2ccc(O)c(OC)c2)cc1 [Compound 8, 4-methoxyphenethylferulate] | 2.47 ± 0.64 | 93.28±2.17 | 95.45±1.12 | 102.58±1.54 | 2.21 ± 0.07 | ~1 | 2.55 ± 0.44 | 1.15 |  |  |  |  | moderately absorbed |  | no toxicity |  |
